Experimental data reported in ChEMBL document CHEMBL1201862, “PubChem BioAssay data set” (2004).
Activity calls are given as the source filed them.

Columns and labels:
[1] = Luminescence Cell-Based Dose Retest to Confirm Inhibitors of Cancer Stem Cells. [Related pubchem assays (depositor defined):AID2717, AID2721]; format: functional; settings: Homo sapiens
[2] = target: T1, Cytochrome P450 1A2 (Homo sapiens, UniProt P05177);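 further: PubChem cytochrome P450 panel assay, CYP1A2 panel member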
T1 sequence (P05177 whole entry): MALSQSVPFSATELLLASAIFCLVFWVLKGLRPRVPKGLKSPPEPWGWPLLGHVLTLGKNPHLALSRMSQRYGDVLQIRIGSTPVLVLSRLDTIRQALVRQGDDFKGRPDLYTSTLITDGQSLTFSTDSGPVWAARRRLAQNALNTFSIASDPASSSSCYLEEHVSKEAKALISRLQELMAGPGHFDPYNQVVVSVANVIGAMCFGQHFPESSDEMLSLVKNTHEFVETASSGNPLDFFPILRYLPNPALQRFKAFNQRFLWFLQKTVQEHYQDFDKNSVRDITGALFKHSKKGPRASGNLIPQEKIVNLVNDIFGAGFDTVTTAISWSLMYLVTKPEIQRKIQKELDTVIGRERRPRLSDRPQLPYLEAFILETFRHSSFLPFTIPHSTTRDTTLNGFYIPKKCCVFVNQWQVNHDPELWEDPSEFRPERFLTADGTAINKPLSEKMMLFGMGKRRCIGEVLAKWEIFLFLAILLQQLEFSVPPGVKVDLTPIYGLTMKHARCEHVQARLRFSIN

[3] = inhibitors of firefly luciferase expression or activity, dose response, H4 neuroglioma cells, luminescence (AID 1990); format: functional, cell-based
[4] = target: T2, Hexokinase HKDC1 (Homo sapiens, UniProt Q2TB90); assay: HKDC1 hexokinase inhibitors, dose response, biochemical, W721R variant (AID 504729); format: functional
T2 sequence (Q2TB90 whole entry): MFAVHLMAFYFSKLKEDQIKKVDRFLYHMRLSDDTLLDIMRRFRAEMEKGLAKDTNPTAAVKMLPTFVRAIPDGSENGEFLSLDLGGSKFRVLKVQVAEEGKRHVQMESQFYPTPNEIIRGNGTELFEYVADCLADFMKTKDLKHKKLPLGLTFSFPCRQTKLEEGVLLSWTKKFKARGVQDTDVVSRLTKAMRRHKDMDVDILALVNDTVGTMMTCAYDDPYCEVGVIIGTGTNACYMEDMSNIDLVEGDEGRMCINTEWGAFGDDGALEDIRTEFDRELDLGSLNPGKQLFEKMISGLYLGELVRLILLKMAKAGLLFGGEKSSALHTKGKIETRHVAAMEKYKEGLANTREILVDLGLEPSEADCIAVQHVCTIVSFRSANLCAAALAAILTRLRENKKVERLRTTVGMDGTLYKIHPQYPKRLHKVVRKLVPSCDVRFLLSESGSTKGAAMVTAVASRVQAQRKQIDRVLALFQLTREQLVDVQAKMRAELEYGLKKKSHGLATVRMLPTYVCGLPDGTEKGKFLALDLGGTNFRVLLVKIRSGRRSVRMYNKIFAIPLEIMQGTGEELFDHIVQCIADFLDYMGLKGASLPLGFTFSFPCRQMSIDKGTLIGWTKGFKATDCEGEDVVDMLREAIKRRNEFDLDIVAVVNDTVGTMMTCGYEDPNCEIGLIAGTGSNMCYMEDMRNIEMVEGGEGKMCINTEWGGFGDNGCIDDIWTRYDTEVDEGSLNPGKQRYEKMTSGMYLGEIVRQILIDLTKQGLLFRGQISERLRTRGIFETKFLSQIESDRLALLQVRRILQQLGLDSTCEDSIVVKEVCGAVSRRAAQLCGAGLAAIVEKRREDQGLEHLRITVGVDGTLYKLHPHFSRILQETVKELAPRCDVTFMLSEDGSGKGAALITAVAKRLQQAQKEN

[5] = Luminescence Cell-Based Dose Response HTS to Identify Inhibitors of 5'UTR Stem-Loop Driven Prion Protein mRNA Translation in H4 Neuroglioblastoma Cells. [Related pubchem assays: 1827 (Project Summary), 1813 (Primary HTS)]; format: functional
[6] = target: T3, Caspase-6 (Homo sapiens, UniProt P55212); assay: human caspase-6 inhibitors, dose response, biochemical, VEID-R110 fluorescence, cherry-pick (AID 720632)
T3 sequence (P55212 whole entry): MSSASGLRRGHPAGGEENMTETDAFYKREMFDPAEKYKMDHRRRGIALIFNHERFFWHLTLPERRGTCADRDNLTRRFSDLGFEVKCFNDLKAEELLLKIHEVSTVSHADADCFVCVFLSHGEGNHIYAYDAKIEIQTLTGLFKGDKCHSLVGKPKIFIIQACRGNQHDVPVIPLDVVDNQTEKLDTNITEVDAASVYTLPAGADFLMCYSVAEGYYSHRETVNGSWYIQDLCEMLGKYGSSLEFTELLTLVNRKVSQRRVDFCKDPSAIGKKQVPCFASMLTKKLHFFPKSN

[7] = target: Intestinal-type alkaline phosphatase (Mus musculus, UniProt P24822); assay: PubChem AID 488874; format: functional
[8] = target: Mitogen-activated protein kinase 1 (Homo sapiens, UniProt P28482); format: functional
Mitogen-activated protein kinase 1, sequence (P28482 whole entry): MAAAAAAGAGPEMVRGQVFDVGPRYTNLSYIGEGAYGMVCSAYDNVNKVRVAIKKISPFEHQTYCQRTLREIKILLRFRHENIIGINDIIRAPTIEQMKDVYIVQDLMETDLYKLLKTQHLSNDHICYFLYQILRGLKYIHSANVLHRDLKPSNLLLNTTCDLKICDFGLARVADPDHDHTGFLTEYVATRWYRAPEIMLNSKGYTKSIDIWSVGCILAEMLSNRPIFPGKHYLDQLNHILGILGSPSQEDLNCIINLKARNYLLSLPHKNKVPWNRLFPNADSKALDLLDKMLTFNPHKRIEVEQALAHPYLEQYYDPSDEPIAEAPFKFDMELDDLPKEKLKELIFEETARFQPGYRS

[9] = target: Serine/threonine-protein kinase Nek2 (Homo sapiens, UniProt P51955); format: functional
[10] = target: Serine/threonine-protein kinase Nek4 (Homo sapiens, UniProt P51957); format: functional
Serine/threonine-protein kinase Nek4, sequence (P51957 whole entry): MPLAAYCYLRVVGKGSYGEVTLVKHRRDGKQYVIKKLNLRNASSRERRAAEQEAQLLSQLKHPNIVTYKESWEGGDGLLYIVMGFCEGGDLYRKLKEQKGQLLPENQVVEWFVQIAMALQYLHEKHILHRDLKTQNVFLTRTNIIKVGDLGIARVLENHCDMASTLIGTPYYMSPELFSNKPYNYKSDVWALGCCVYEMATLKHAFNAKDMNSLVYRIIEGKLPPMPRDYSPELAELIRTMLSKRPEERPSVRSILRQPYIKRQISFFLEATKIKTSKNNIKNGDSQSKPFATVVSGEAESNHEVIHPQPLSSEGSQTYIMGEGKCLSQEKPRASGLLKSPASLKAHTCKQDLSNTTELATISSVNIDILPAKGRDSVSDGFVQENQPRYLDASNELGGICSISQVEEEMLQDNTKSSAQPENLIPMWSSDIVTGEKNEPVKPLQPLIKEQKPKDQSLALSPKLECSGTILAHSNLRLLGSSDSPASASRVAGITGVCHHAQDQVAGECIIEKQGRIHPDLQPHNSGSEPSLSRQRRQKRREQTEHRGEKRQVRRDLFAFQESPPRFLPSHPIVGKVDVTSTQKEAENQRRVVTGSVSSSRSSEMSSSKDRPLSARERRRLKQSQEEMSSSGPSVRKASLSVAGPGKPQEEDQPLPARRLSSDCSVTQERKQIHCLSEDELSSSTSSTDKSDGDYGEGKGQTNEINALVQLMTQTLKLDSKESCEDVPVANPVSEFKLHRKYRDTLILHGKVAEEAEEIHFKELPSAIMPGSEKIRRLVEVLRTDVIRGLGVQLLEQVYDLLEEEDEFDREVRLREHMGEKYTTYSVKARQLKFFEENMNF

[11] = target: Proto-oncogene tyrosine-protein kinase Src (Homo sapiens, UniProt P12931); format: functional;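 further: SRC entry within a kinome-wide kinase profiling panel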
Proto-oncogene tyrosine-protein kinase Src, sequence (P12931 2-536 limits assumed): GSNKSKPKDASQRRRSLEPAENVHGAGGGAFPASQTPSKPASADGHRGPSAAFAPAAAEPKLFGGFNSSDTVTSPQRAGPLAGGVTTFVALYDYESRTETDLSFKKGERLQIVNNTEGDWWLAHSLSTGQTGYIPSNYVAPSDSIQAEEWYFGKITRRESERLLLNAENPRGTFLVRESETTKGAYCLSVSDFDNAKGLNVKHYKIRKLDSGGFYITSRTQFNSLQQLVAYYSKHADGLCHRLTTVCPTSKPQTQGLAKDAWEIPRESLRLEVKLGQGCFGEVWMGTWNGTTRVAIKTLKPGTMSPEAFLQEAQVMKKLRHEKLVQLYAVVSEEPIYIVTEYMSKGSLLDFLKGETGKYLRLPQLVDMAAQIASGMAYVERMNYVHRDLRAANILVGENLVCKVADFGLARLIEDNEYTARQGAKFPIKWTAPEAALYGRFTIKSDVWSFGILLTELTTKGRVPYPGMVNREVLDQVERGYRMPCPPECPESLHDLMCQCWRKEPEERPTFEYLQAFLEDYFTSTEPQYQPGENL

[12] = target: Calcium/calmodulin-dependent protein kinase type II subunit gamma (Homo sapiens, UniProt Q13555); format: functional
Calcium/calmodulin-dependent protein kinase type II subunit gamma, sequence (Q13555 whole entry): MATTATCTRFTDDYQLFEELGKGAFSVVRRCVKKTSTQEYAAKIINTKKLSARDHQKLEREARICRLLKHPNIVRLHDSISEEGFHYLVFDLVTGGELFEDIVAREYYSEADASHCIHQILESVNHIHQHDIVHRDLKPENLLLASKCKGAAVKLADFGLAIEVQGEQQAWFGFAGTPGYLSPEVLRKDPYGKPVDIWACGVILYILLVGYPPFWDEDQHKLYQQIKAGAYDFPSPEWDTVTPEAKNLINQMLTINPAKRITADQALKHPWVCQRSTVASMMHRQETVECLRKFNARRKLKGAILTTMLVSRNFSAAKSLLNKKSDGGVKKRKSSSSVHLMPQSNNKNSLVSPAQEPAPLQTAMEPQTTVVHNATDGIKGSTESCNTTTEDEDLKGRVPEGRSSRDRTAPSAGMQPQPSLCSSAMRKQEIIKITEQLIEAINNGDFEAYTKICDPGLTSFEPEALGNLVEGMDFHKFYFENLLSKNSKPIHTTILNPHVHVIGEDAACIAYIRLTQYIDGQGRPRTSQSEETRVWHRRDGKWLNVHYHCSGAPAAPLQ

[13] = target: Ribosomal protein S6 kinase alpha-5 (Homo sapiens, UniProt O75582); format: functional
[14] = target: Dual specificity protein kinase CLK4 (Homo sapiens, UniProt Q9HAZ1); format: functional
[15] = target: Serine/threonine-protein kinase MRCK alpha (Homo sapiens, UniProt Q5VT25); format: functional
[16] = target: Interleukin-1 receptor-associated kinase 1 (Homo sapiens, UniProt P51617); format: functional;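 further: IRAK1 tested as one member of a kinome panel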
Interleukin-1 receptor-associated kinase 1, sequence (P51617 whole entry): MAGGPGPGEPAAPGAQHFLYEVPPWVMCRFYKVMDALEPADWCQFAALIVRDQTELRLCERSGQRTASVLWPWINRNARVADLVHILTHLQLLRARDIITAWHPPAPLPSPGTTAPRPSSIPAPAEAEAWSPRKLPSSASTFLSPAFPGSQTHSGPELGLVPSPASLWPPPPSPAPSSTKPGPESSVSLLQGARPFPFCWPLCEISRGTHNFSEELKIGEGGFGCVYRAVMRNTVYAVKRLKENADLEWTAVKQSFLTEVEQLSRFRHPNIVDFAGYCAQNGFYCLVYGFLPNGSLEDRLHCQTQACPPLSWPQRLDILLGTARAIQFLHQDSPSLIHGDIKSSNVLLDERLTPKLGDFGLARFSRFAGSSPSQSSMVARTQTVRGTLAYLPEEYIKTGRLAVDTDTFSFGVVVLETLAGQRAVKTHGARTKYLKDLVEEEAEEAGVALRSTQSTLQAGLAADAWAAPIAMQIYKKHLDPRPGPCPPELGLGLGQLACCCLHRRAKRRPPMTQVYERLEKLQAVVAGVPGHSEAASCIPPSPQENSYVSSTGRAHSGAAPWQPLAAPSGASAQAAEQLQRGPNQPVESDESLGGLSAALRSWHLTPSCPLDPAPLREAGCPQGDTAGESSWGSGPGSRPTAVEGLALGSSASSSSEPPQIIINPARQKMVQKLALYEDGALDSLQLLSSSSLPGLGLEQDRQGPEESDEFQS

[17] = target: Mitogen-activated protein kinase kinase kinase kinase 5 (Homo sapiens, UniProt Q9Y4K4); format: functional;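 further: measured as one member of a kinome-spanning kinase panel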
[18] = target: Cyclin-dependent kinase 7 (Homo sapiens, UniProt P50613); format: functional;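 further: value comes from a kinome-wide kinase profiling panel in which CDK7 is one member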
Cyclin-dependent kinase 7, sequence (P50613 whole entry): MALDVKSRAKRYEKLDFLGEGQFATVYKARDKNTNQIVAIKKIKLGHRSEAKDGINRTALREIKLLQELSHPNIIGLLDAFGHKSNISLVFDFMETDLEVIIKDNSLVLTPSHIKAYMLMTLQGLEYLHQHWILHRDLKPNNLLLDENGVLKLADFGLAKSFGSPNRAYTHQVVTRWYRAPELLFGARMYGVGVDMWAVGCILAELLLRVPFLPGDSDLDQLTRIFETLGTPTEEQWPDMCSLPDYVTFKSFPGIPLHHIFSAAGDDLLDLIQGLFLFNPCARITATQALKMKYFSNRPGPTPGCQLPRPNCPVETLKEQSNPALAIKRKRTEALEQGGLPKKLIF

[19] = target: Vascular endothelial growth factor receptor 1 (Homo sapiens, UniProt P17948); format: functional;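 further: measured within a kinome-wide profiling panel, FLT1 as the panel member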
Vascular endothelial growth factor receptor 1, sequence (P17948 whole entry): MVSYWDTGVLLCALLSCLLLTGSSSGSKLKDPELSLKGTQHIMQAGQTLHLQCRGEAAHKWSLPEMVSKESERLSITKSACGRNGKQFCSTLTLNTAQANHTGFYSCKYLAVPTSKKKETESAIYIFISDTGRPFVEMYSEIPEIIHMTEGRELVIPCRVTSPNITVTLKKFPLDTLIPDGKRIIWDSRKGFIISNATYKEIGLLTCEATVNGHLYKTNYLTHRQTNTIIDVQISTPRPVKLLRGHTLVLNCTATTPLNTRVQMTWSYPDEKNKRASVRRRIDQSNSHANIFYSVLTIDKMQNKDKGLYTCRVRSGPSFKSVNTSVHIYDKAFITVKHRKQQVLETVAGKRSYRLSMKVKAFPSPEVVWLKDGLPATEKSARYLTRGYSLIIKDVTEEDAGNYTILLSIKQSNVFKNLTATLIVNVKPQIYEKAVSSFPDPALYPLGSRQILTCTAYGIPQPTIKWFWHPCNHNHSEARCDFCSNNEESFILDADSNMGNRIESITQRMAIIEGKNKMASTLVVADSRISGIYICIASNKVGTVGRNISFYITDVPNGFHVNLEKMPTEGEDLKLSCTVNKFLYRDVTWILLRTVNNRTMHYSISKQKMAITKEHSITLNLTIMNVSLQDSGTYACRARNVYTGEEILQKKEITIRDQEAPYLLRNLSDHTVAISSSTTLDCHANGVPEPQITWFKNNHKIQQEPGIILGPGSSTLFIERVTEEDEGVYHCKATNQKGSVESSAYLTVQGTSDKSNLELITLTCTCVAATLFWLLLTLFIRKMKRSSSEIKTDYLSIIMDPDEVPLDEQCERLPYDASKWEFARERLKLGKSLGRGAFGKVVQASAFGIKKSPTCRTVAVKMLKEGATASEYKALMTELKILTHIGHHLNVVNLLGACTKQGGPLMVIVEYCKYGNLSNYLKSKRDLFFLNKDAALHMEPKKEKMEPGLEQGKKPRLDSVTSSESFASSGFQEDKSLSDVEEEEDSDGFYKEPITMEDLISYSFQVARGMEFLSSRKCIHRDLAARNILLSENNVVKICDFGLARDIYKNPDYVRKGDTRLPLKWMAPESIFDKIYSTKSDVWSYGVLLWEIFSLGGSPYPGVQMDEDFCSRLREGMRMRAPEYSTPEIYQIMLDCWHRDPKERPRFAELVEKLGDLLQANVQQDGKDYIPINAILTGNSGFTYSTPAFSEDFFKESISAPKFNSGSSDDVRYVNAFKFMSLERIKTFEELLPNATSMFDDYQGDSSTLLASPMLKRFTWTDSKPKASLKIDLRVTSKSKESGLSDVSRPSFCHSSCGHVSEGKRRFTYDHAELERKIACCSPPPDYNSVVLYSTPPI

[20] = target: Tyrosine-protein kinase ABL1 (Homo sapiens, UniProt P00519); format: functional
[21] = target: Induced myeloid leukemia cell differentiation protein Mcl-1 (Homo sapiens, UniProt Q07820); format: functional
Induced myeloid leukemia cell differentiation protein Mcl-1, sequence (Q07820 whole entry): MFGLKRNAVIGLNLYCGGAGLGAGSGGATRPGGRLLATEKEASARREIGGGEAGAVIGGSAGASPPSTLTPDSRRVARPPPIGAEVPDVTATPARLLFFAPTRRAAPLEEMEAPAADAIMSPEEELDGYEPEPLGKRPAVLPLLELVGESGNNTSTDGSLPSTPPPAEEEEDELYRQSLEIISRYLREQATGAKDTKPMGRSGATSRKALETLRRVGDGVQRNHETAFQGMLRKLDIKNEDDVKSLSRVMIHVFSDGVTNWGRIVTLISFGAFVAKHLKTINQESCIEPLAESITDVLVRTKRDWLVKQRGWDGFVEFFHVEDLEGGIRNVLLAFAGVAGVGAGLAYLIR

CN(C)S(=O)(=O)Oc1cccc(C(=O)Nc2ccc(Cl)c(Cl)c2)c1
AC50 [1]: 8.64 µM (active)
AC50 [2]: 2 µM (inconclusive)

COC(=O)C1CN(C#N)N(c2ccc(Cl)cc2)C12c1ccccc1-c1ccccc12 (stereo unspecified)
EC50 [3]: > 120 µM (not active)
IC50 [4]: 3.81 µM (active)
EC50 [5]: 10.1 µM (active)

O=C(NN1C(=O)CSC1=S)C(=O)NN1C(=O)CSC1=S
AC50 [6]: 0.276 µM (active)
IC50 [7]: 3.84 µM (active)

Nc1noc2cccc(-c3cccc(O)c3)c12
Ki [8]: > 7.94 µM (inactive)
Ki [9]: > 10 µM (inactive)
Ki [10]: > 6.31 µM (inactive)
Ki [11]: 1.26 µM (active)
Ki [12]: 6.31 µM (active)
Ki [13]: 0.631 µM (active)
Ki [14]: 1.26 µM (active)
Ki [15]: > 10 µM (inactive)
Ki [16]: > 7.94 µM (inactive)
Ki [17]: > 7.94 µM (inactive)
Ki [18]: 20 µM (active)
Ki [19]: > 10 µM (inactive)
Ki [20]: > 1 µM (inactive)

O=C1NC(=S)S/C1=C\C=C\c1ccc([N+](=O)[O-])o1
IC50 [21]: 1.92 µM (active)
